# Source: ChEMBL document CHEMBL3797052 (Eur J Med Chem, 2016)
# Experiments:
# [1] = Antiproliferative activity against human OVCAR4 cells assessed as cell growth at 10^-6 M after 48 hrs by sulforhodamine B assay; assay type: functional; details: OVCAR-4, 48 h, read-out: Activity
# M14 [2] = experiment: Antiproliferative activity against human M14 cells assessed as cell growth at 10^-7 M after 48 hrs by sulforhodamine B assay; assay type: functional; details: M14, 48 h, read-out: Activity
# [3] = Antiproliferative activity against human BT549 cells assessed as cell growth at 10^-7 M after 48 hrs by sulforhodamine B assay; assay type: functional; details: BT-549, 48 h, read-out: Activity
# [4] = Antiproliferative activity against human RPMI8226 cells assessed as cell growth at 10^-4 M after 48 hrs by sulforhodamine B assay; assay type: functional; details: RPMI-8226, 48 h, read-out: Activity
# SN12C [5] = experiment: Antiproliferative activity against human SN12C cells assessed as cell growth at 10^-4 M after 48 hrs by sulforhodamine B assay; assay type: functional; details: read-out: Activity
# NCI-H226 = experiment: Antiproliferative activity against human NCI-H226 cells assessed as cell growth at 10^-6 M after 48 hrs by sulforhodamine B assay; assay type: functional; details: NCI-H226, 48 h, read-out: Activity
# SK-MEL-28 = experiment: Antiproliferative activity against human SK-MEL-28 cells assessed as cell growth at 10^-7 M after 48 hrs by sulforhodamine B assay; assay type: functional; details: SK-MEL-28, 48 h, read-out: Activity
# [6] = Antiproliferative activity against human LOXIMVI cells assessed as cell growth at 10^-7 M after 48 hrs by sulforhodamine B assay; assay type: functional; details: LOX IMVI, read-out: Activity
# A498 = experiment: Antiproliferative activity against human A498 cells assessed as cell growth at 10^-6 M after 48 hrs by sulforhodamine B assay; assay type: functional; details: A498, 48 h, read-out: Activity
# [7] = Antiproliferative activity against human HCT116 cells assessed as cell growth at 10^-4 M after 48 hrs by sulforhodamine B assay; assay type: functional; details: HCT-116, 48 h, read-out: Activity
# [8] = Antiproliferative activity against human HL-60(TB) cells assessed as cell growth at 10^-4 M after 48 hrs by sulforhodamine B assay; assay type: functional; details: HL-60, 48 h, read-out: Activity
# SN12C [9] = experiment: Antiproliferative activity against human SN12C cells assessed as growth inhibition after 48 hrs by sulforhodamine B assay; assay type: functional
# [10] = Antiproliferative activity against human OVCAR5 cells assessed as growth inhibition after 48 hrs by sulforhodamine B assay; assay type: functional; details: OVCAR-5, 48 h
# K562 = experiment: Antiproliferative activity against human K562 cells assessed as growth inhibition after 48 hrs by sulforhodamine B assay; assay type: functional; details: K562, 48 h
# [11] = Antiproliferative activity against human SKOV3 cells assessed as cell growth at 10^-6 M after 48 hrs by sulforhodamine B assay; assay type: functional; details: SK-OV-3, 48 h, read-out: Activity
# [12] = Antiproliferative activity against human HCT116 cells assessed as growth inhibition after 48 hrs by sulforhodamine B assay; assay type: functional; details: HCT-116, 48 h
# ACHN = experiment: Antiproliferative activity against human ACHN cells assessed as cell growth at 10^-8 M after 48 hrs by sulforhodamine B assay; assay type: functional; details: read-out: Activity
# [13] = Antiproliferative activity against human UACC62 cells assessed as growth inhibition after 48 hrs by sulforhodamine B assay; assay type: functional; details: UACC-62, 48 h
# [14] = Antiproliferative activity against human HCT15 cells assessed as cell growth at 10^-8 M after 48 hrs by sulforhodamine B assay; assay type: functional; details: HCT-15, 48 h, read-out: Activity
# MCF7 [15] = experiment: Antiproliferative activity against human MCF7 cells assessed as cell growth at 10^-8 M after 48 hrs by sulforhodamine B assay; assay type: functional; details: MCF7, 48 h, read-out: Activity
# 786-0 [16] = experiment: Antiproliferative activity against human 786-0 cells assessed as cell growth at […] after 48 hrs by sulforhodamine B assay; assay type: functional; details: 786-0, 48 h, read-out: Activity
# [17] = Antiproliferative activity against human HCT15 cells assessed as cell growth at 10^-6 M after 48 hrs by sulforhodamine B assay; assay type: functional; details: HCT-15, 48 h, read-out: Activity
# [18] = Antiproliferative activity against human Caki1 cells assessed as growth inhibition after 48 hrs by sulforhodamine B assay; assay type: functional; details: CAKI-1, 48 h
# MDA-MB-468 = experiment: Antiproliferative activity against human MDA-MB-468 cells assessed as cell growth at 10^-7 M after 48 hrs by sulforhodamine B assay; assay type: functional; details: MDA-MB-468, 48 h, read-out: Activity
# [19] = Antiproliferative activity against human UACC62 cells assessed as cell growth at 10^-6 M after 48 hrs by sulforhodamine B assay; assay type: functional; details: UACC-62, 48 h, read-out: Activity
# 786-0 [20] = experiment: Antiproliferative activity against human 786-0 cells assessed as cell growth at 10^-7 M after 48 hrs by sulforhodamine B assay; assay type: functional; details: 786-0, 48 h, read-out: Activity
# [21] = Antiproliferative activity against human HOP92 cells assessed as cell growth at 10^-6 M after 48 hrs by sulforhodamine B assay; assay type: functional; details: HOP-92, 48 h, read-out: Activity
# [22] = Antiproliferative activity against human SF268 cells assessed as growth inhibition after 48 hrs by sulforhodamine B assay; assay type: functional; details: SF-268, 48 h
# CYP2C19 = CYP2C19 (Homo sapiens, UniProt P33261); experiment: Inhibition of recombinant human CYP2C19 assessed as remaining enzyme activity at 10 uM after 5 mins in presence of NADP by fluorescence plate reader analysis; assay type: ADME; details: read-out: Activity
# [23] = Antiproliferative activity against human Caki1 cells assessed as cell growth at 10^-7 M after 48 hrs by sulforhodamine B assay; assay type: functional; details: CAKI-1, 48 h, read-out: Activity
# M14 [24] = experiment: Antiproliferative activity against human M14 cells assessed as cell growth at 10^-8 M after 48 hrs by sulforhodamine B assay; assay type: functional; details: M14, 48 h, read-out: Activity
# [25] = Antiproliferative activity against human BT549 cells assessed as cell growth at 10^-8 M after 48 hrs by sulforhodamine B assay; assay type: functional; details: BT-549, 48 h, read-out: Activity
# [26] = Antiproliferative activity against human NCI-ADR-RES cells assessed as cell growth at 10^-8 M after 48 hrs by sulforhodamine B assay; assay type: functional; details: read-out: Activity
# [27] = Antiproliferative activity against human IGROV1 cells assessed as growth inhibition after 48 hrs by sulforhodamine B assay; assay type: functional; details: IGROV-1, 48 h
# [28] = Antiproliferative activity against human SF295 cells assessed as cell growth at 10^-4 M after 48 hrs by sulforhodamine B assay; assay type: functional; details: SF-295, 48 h, read-out: Activity
# MCF7 [29] = experiment: Antiproliferative activity against human MCF7 cells assessed as cell growth at 10^-7 M after 48 hrs by sulforhodamine B assay; assay type: functional; details: MCF7, 48 h, read-out: Activity
# [30] = read-out: LC50 (the source's name)
# CYP2C19, sequence (P33261 whole entry): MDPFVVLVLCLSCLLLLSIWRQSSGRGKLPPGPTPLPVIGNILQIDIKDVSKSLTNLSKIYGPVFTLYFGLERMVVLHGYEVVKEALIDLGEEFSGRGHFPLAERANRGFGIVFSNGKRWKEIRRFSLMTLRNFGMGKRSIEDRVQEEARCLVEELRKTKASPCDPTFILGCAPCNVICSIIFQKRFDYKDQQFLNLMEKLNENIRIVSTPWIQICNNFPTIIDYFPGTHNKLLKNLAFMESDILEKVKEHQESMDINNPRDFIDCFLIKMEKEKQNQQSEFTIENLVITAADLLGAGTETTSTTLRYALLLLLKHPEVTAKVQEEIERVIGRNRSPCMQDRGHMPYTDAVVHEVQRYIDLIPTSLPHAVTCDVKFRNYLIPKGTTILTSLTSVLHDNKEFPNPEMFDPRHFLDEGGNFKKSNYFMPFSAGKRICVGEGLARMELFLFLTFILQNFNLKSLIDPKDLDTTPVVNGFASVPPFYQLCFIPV
structure (smiles),measurement,setting,value
CNC(=O)c1cc(Oc2ccc3nc(NC(=O)c4cc(C(F)(F)F)cc(C(F)(F)F)c4)sc3c2)ccn1,growth at 1 µM,[1],89%
same,growth at 0.1 µM,M14 [2],91%
same,growth at 0.1 µM,[3],86%
same,growth at 100 µM,[4],15%
same,growth at 100 µM,SN12C [5],-53%
same,growth at 1 µM,NCI-H226,101%
same,growth at 0.1 µM,SK-MEL-28,96%
same,growth at 0.1 µM,[6],96%
same,growth at 1 µM,A498,66%
same,growth at 100 µM,[7],-84%
same,growth at 100 µM,[8],-45%
same,GI50,SN12C [9],3.22 µM
same,TGI,SN12C [9],12.5 µM
same,CC50,SN12C [9]; [30],89.8 µM
same,GI50,[10],4.23 µM
same,TGI,[10],25 µM
same,CC50,[10]; [30],> 100 µM
same,GI50,K562,3.53 µM
same,TGI,K562,> 100 µM
same,CC50,K562; [30],> 100 µM
same,growth at 1 µM,[11],90%
same,GI50,[12],3.41 µM
same,LC50 (concentration killing 50% of the starting cells),[12],42.4 µM
same,TGI,[12],11.9 µM
same,growth at 0.01 µM,ACHN,104%
same,GI50,[13],2.71 µM
same,TGI,[13],12.1 µM
same,CC50,[13]; [30],80.5 µM
same,growth at 0.01 µM,[14],104%
same,growth at 0.01 µM,MCF7 [15],93%
same,growth at 100 µM,786-0 [16],-71%
same,growth at 1 µM,[17],96%
same,GI50,[18],2.75 µM
same,TGI,[18],10.7 µM
same,CC50,[18]; [30],62.3 µM
same,growth at 0.1 µM,MDA-MB-468,96%
same,growth at 1 µM,[19],84%
same,growth at 0.1 µM,786-0 [20],90%
same,growth at 1 µM,[21],68%
same,GI50,[22],2.66 µM
same,LC50 (concentration killing 50% of cells),[22],> 100 µM
same,TGI,[22],17 µM
same,"activity at 5 min, 10 µM",CYP2C19,10.3%
same,growth at 0.1 µM,[23],91%
same,growth at 0.01 µM,M14 [24],99%
same,growth at 0.01 µM,[25],97%
same,growth at 0.01 µM,[26],102%
same,GI50,[27],4.26 µM
same,TGI,[27],27 µM
same,CC50,[27]; [30],> 100 µM
same,growth at 100 µM,[28],-73%
same,growth at 0.1 µM,MCF7 [29],89%
